Reference: patent US9771341B2, “Piperazine carbamates and methods of making and using same” (Abide Therapeutics, Inc., priority 2015, dated 2017)

Assays:
Type in all cases: biochemical
ABHD6 = target: T1, ABHD6 (Mus musculus, UniProt Q8R2Y0); assay: In vitro competitive activity-based protein profiling (mouse), ABHD6; conditions: for inhibition at 1 µM: mouse proteome, in vitro, read-out: % Inhibition at 1 μM ABHD6; for IC50: mouse brain membrane fraction or cell lysates, 30 min preincubation at 37° C, FP-Rh probe
T1 construct: Proteomes (mouse brain membrane fraction or cell lysates); from tissue; host or cells: mouse brain membrane fraction (or unspecified cell lysates)
T1 sequence (Q8R2Y0 1-336): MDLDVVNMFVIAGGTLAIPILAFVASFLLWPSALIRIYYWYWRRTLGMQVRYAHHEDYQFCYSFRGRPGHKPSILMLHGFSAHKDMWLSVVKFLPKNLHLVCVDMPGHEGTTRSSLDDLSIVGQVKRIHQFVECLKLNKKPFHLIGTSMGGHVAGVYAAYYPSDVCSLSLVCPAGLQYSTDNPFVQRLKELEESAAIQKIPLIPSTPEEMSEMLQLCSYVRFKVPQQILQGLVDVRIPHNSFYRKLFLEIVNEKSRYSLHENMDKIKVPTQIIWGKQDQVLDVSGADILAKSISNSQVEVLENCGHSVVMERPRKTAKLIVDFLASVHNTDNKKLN
Experimental: (§1) In Vitro Competitive Activity-Based Protein Profiling (Mouse).
(§2) Proteomes (mouse brain membrane fraction or cell lysates) (50 μL, 1.0 mg/mL total protein concentration) were preincubated with varying concentrations of inhibitors at 37° C. After 30 min, FP-Rh (1.0 μL, 50 μM in DMSO) was added and the mixture was incubated for another 30 min at 37° C. Reactions were quenched with SDS loading buffer (50 μL-4×) and run on SDS-PAGE.

FAAH = target: T2, FAAH (Mus musculus, UniProt O08914); assay: In vitro competitive activity-based protein profiling (mouse), FAAH; conditions: for inhibition at 1 µM: mouse proteome, in vitro; for IC50: mouse brain membrane fraction or cell lysates, 30 min preincubation at 37° C, FP-Rh probe
T2 construct: Proteomes (mouse brain membrane fraction or cell lysates); from tissue; host or cells: mouse brain membrane fraction (or unspecified cell lysates)
T2 sequence (O08914 1-579): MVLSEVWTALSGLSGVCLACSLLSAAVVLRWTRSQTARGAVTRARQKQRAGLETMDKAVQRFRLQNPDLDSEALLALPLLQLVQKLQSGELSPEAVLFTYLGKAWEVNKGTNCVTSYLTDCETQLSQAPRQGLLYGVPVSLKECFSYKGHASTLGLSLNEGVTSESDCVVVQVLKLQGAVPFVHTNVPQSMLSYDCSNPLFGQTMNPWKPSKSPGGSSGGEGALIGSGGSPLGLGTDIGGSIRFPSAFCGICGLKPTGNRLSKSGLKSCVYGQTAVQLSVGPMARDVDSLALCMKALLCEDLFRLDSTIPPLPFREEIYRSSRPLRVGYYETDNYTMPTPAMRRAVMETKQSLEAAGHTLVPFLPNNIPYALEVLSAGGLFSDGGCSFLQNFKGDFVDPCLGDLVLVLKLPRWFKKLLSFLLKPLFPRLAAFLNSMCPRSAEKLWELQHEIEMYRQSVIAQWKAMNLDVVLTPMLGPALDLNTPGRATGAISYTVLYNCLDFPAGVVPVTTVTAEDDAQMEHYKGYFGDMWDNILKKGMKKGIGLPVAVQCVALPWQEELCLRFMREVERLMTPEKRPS
Experimental: as §1
as §2, with “SDS-PAGE. Following gel imaging, serine hydrolase activity was determined by measuring fluorescent intensity of gel bands corresponding to MAGL, ABHD6 and FAAH using ImageJ 1.43u software.” for “SDS-PAGE.”

MAGL = target: T3, MAGL (Mus musculus, UniProt O35678); assay: In vitro competitive activity-based protein profiling (mouse), MAGL; conditions: for inhibition at 1 µM: mouse proteome, in vitro, read-out: % Inhibition at 1 μM MAGL; for IC50: mouse brain membrane fraction or cell lysates, 30 min preincubation at 37° C, FP-Rh probe
T3 construct: Proteomes (mouse brain membrane fraction or cell lysates); from tissue; host or cells: mouse brain membrane fraction (or unspecified cell lysates)
T3 sequence (O35678 1-303): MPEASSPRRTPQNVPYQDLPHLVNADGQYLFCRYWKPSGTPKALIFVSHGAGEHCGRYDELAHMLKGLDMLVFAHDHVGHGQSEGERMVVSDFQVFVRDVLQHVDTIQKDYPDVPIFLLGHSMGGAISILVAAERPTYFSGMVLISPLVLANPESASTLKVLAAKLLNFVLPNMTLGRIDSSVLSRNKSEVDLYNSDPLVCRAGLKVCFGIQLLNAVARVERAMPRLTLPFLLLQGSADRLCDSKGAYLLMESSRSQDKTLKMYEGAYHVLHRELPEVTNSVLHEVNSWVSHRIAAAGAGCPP
Experimental: as §1, §2

| inhibition at 1 µM (ABHD6) | IC50 (ABHD6) | inhibition at 1 µM (FAAH) | IC50 (FAAH) | inhibition at 1 µM (MAGL) | IC50 (MAGL) | SMILES |
| --- | --- | --- | --- | --- | --- | --- |
| < 25% | > 1000 nM | < 25% | > 1000 nM | > 75% | 100 to 1000 nM | O=C(O)C1CCN(c2cc(Cl)ccc2CN2CCN(C(=O)OC(C(F)(F)F)C(F)(F)F)CC2)CC1 [Example 62, 1-(5-chloro-2-((4-(((1,1,1,3,3,3-hexafluoropropan-2-yl)oxy)carbonyl)piperazin-1-yl)methyl)phenyl)piperidine-4-carboxylic acid] |
| > 75% | 100 to 1000 nM | < 25% | > 1000 nM | > 75% | < 100 nM | O=C(O)C1CCN(c2cc(C(F)(F)F)ccc2CN2CCN(C(=O)OC(C(F)(F)F)C(F)(F)F)CC2)CC1 [Example 63, 1-(2-((4-(((1,1,1,3,3,3-hexafluoropropan-2-yl)oxy)carbonyl)piperazin-1-yl)methyl)-5-(trifluoromethyl)phenyl)piperidine-4-carboxylic acid] |
| < 25% | > 1000 nM | < 25% | > 1000 nM | > 75% | 100 to 1000 nM | O=C(OC(C(F)(F)F)C(F)(F)F)N1CCN(Cc2ccc(Cl)cc2N2CC3CN(C4CC4)CC3C2)CC1 (stereo not drawn) [Example 64, 1,1,1,3,3,3-hexafluoropropan-2-yl 4-(4-chloro-2-(5-cyclopropylhexahydropyrrolo[3,4-c]pyrrol-2(1H)-yl)benzyl)piperazine-1-carboxylate] |
| 25 to 75% | > 1000 nM | < 25% | > 1000 nM | > 75% | 100 to 1000 nM | O=C(OC(C(F)(F)F)C(F)(F)F)N1CCN(Cc2ccc(Cl)cc2N2CCC3(CCCN3C3CC3)CC2)CC1 [Example 66, 1,1,1,3,3,3-hexafluoropropan-2-yl 4-(4-chloro-2-(1-cyclopropyl-1,8-diazaspiro[4.5]decan-8-yl)benzyl)piperazine-1-carboxylate] |
| < 25% | > 1000 nM | < 25% | > 1000 nM | > 75% | 100 to 1000 nM | O=C(OC(C(F)(F)F)C(F)(F)F)N1CCN(Cc2ccc(C(F)(F)F)cc2N2CCC3(CCCN3C3CC3)CC2)CC1 [Example 67, 1,1,1,3,3,3-hexafluoropropan-2-yl 4-(2-(1-cyclopropyl-1,8-diazaspiro[4.5]decan-8-yl)-4-(trifluoromethyl)benzyl)piperazine-1-carboxylate] |
| < 25% | > 1000 nM | < 25% | > 1000 nM | > 75% | 100 to 1000 nM | O=C(OC(C(F)(F)F)C(F)(F)F)N1CCN(Cc2ccc(C(F)(F)F)cc2N2CCC(C(=O)N3CCCC3)CC2)CC1 [Example 68, 1,1,1,3,3,3-hexafluoropropan-2-yl 4-(2-(4-(pyrrolidine-1-carbonyl)piperidin-1-yl)-4-(trifluoromethyl)benzyl)piperazine-1-carboxylate] |
| > 75% | 100 to 1000 nM | < 25% | > 1000 nM | > 75% | < 100 nM | CCOC(=O)C1CCCN1c1cc(C(F)(F)F)ccc1CN1CCN(C(=O)OC(C(F)(F)F)C(F)(F)F)CC1 (stereo not drawn) [Example 70, 1,1,1,3,3,3-hexafluoropropan-2-yl 4-(2-(2-(ethoxycarbonyl)pyrrolidin-1-yl)-4-(trifluoromethyl)benzyl)piperazine-1-carboxylate] |
| > 75% | 100 to 1000 nM | < 25% | > 1000 nM | > 75% | < 100 nM | O=C(O)C1CCN(c2cc(C(F)(F)F)ccc2CN2CCN(C(=O)OC(C(F)(F)F)C(F)(F)F)CC2)C1 (stereo not drawn) [Example 72, 1-(2-((4-(((1,1,1,3,3,3-hexafluoropropan-2-yl)oxy)carbonyl)piperazin-1-yl)methyl)-5-(trifluoromethyl)phenyl)pyrrolidine-3-carboxylic acid] |
| > 75% | 100 to 1000 nM | < 25% | > 1000 nM | > 75% | < 100 nM | O=C(OC(C(F)(F)F)C(F)(F)F)N1CCN(Cc2ccc(C(F)(F)F)cc2N2CCC(CO)C2)CC1 (stereo not drawn) [Example 73, 1,1,1,3,3,3-hexafluoropropan-2-yl 4-(2-(3-(hydroxymethyl)pyrrolidin-1-yl)-4-(trifluoromethyl)benzyl)piperazine-1-carboxylate] |
| > 75% | > 1000 nM | < 25% | > 1000 nM | > 75% | < 100 nM | O=C(O)C(=O)c1cc(C(F)(F)F)ccc1CN1CCN(C(=O)OC(C(F)(F)F)C(F)(F)F)CC1 [Example 76, 2-(2-((4-(((1,1,1,3,3,3-hexafluoropropan-2-yl)oxy)carbonyl)piperazin-1-yl)methyl)-5-(trifluoromethyl)phenyl)-2-oxoacetic acid] |
| > 75% | > 1000 nM | < 25% | > 1000 nM | > 75% | 100 to 1000 nM | O=C(O)[C@@H]1CCCN1c1cc(CN2CCN(C(=O)OC(C(F)(F)F)C(F)(F)F)CC2)ccc1C(F)(F)F [Example 77, (5-((4-(((1,1,1,3,3,3-hexafluoropropan-2-yl)oxy)carbonyl)piperazin-1-yl)methyl)-2-(trifluoromethyl)phenyl)proline] |
| > 75% | 100 to 1000 nM | < 25% | > 1000 nM | > 75% | < 100 nM | CCOC(=O)C1CCCN1c1cc(CN2CCN(C(=O)OC(C(F)(F)F)C(F)(F)F)CC2)ccc1C(F)(F)F (stereo not drawn) [Example 78, 1,1,1,3,3,3-hexafluoropropan-2-yl 4-(3-(2-(ethoxycarbonyl)pyrrolidin-1-yl)-4-(trifluoromethyl)benzyl)piperazine-1-carboxylate] |
| > 75% | < 100 nM | < 25% | > 1000 nM | > 75% | < 100 nM | O=C(OC(C(F)(F)F)C(F)(F)F)N1CCN(Cc2ccc(C(F)(F)F)c(N3CCCC3CO)c2)CC1 (stereo not drawn) [Example 79, 1,1,1,3,3,3-hexafluoropropan-2-yl 4-(3-(2-(hydroxymethyl)pyrrolidin-1-yl)-4-(trifluoromethyl)benzyl)piperazine-1-carboxylate] |
| 25 to 75% | 100 to 1000 nM | < 25% | > 1000 nM | > 75% | < 100 nM | O=C(O)C1CCN(c2cc(CN3CCN(C(=O)OC(C(F)(F)F)C(F)(F)F)CC3)ccc2C(F)(F)F)C1 (stereo not drawn) [Example 80, 1-(5-((4-(((1,1,1,3,3,3-hexafluoropropan-2-yl)oxy)carbonyl)piperazin-1-yl)methyl)-2-(trifluoromethyl)phenyl)pyrrolidine-3-carboxylic acid] |
| > 75% | 100 to 1000 nM | < 25% | > 1000 nM | > 75% | 100 to 1000 nM | O=C(OC(C(F)(F)F)C(F)(F)F)N1CCN(Cc2ccc(C(F)(F)F)c(N3CCC(CO)C3)c2)CC1 (stereo not drawn) [Example 81, 1,1,1,3,3,3-hexafluoropropan-2-yl 4-(3-(3-(hydroxymethyl)pyrrolidin-1-yl)-4-(trifluoromethyl)benzyl)piperazine-1-carboxylate] |
